Experiment: molar heat capacity at constant pressure
Conditions: 101.33 kPa, Crystal, Small (less than 1 g) adiabatic calorimetry

C[C@@H](O)[C@H](N)C(=O)O [L-threonine]
Conditions | molar heat capacity at constant pressure [J/K/mol]
5 K | 0.06402
7.37 K | 0.2004
7.65 K | 0.2303
8.44 K | 0.3068
9.19 K | 0.3958
9.43 K | 0.4407
9.67 K | 0.4739
9.9 K | 0.4922
10 K | 0.5155
10.18 K | 0.5729
10.51 K | 0.6643
10.84 K | 0.7242
11.17 K | 0.8156
11.5 K | 0.9129
11.83 K | 0.9969
12.17 K | 1.113
12.51 K | 1.243
12.84 K | 1.353
13.18 K | 1.481
13.53 K | 1.619
13.87 K | 1.76
14.22 K | 1.913
14.57 K | 2.065
14.92 K | 2.237
15 K | 2.278
15.27 K | 2.377
15.62 K | 2.567
15.97 K | 2.765
16.32 K | 2.985
16.68 K | 3.152
17.04 K | 3.354
17.4 K | 3.602
17.76 K | 3.807
18.11 K | 4.063
18.48 K | 4.285
18.83 K | 4.521
19.2 K | 4.803
19.56 K | 5.051
19.93 K | 5.331
20 K | 5.346
20.52 K | 5.738
21.27 K | 6.302
22.01 K | 6.89
22.77 K | 7.515
23.52 K | 8.157
24.28 K | 8.822
25 K | 9.478
25.04 K | 9.545
25.8 K | 10.28
26.57 K | 10.94
27.34 K | 11.62
28.11 K | 12.31
28.88 K | 13.09
29.66 K | 13.84
30 K | 14.22
30.44 K | 14.63
31.22 K | 15.38
32.01 K | 16.18
32.79 K | 16.94
33.58 K | 17.68
34.37 K | 18.37
35 K | 19.04
35.15 K | 19.16
35.94 K | 19.87
36.73 K | 20.63
37.52 K | 21.36
38.32 K | 22.06
39.11 K | 22.79
39.9 K | 23.46
40 K | 23.61
40.69 K | 24.2
41.48 K | 24.95
42.28 K | 25.65
43.08 K | 26.38
43.88 K | 27.09
44.68 K | 27.83
45 K | 28.02
45.48 K | 28.52
46.27 K | 29.22
47.07 K | 29.92
47.87 K | 30.56
48.67 K | 31.17
49.47 K | 31.85
50 K | 32.34
50.27 K | 32.5
51.07 K | 33.12
51.88 K | 33.83
52.68 K | 34.53
53.48 K | 35.28
54.29 K | 36.14
55.09 K | 36.92
55.9 K | 37.74
56.7 K | 38.35
57.51 K | 38.9
58.32 K | 39.21
59.12 K | 39.75
59.93 K | 40.38
60 K | 40.57
60.74 K | 41.01
61.55 K | 41.64
62.35 K | 42.25
63.15 K | 42.88

Source: the NIST ThermoML archive (doi:10.1016/j.jct.2017.09.022)
